According to publication PMC7822874, “Chemoprotective antimalarials identified through quantitative high-throughput screening of Plasmodium blood and liver stage parasites” (Scientific Reports, 2021):
Read-outs that look alike come from different tables or passages of the source.

Legend:
[1] = test system: P. falciparum Dd2 (clone B2) asexual blood stage parasites; experiment: P. falciparum Dd2 asexual blood stage SYBR Green-I 72 h proliferation assay (qHTS); type: cell-based, Plasmodium falciparum; conditions: averaged P. falciparum asexual blood stage potency, log10 of AC50 in M
in vitro = conditions: human, hepg2-a16-cd81egfp cells, % viability
[2] = test system: P. berghei-ANKA-GFP-LucCON liver stage parasites in HepG2-A16-CD81EGFP cells; experiment: P. berghei liver stage Pb-Luc assay, Method 1 (UCSD, 1536-well); type: cell-based, Plasmodium berghei; conditions: P. berghei liver stage, averaged response (percent); for Average P. berghei 1 µM response (%): the header list (r8) defines it as the 1 µM dose
HepG2-A16-CD81EGFP cells = conditions: averaged response (percent)
[3] = HepG2, the header list (r10) describes it as the 1 µM dose

SMILES | Pf ABS Log AC50 (M) [1] | viability at 3 µM (in vitro) | Average P. berghei 3 µM response( %) [2] | Average P. berghei 1 µM response (%) [2] | Average HepG2 3 µM response( %) (HepG2-A16-CD81EGFP cells; HepG2, 3 µM dose) | Average HepG2 3 µM response( %) (HepG2-A16-CD81EGFP cells; [3])
N=c1n(CCN2CCCCC2)c2ccccc2n1CC(=O)c1ccc(Cl)c(Cl)c1 [MLS001042209] | -5.750 M | 87.4% | 89% | 92% | 87% | 89%
O=C(Nc1ccc(Nc2ccncc2)cc1)c1ccc(Nc2ccnc3ccc([N+](=O)[O-])cc23)cc1 [MLS000766132] | -6.337 M | 90.3% | 96% | 114% | 90% | 92%
Cl.Oc1ccc(C2NCc3ccccc3-n3cccc32)cc1Cl (centres unmarked) [MLS000047999] | -5.962 M | 94% | 90% | 101% | 94% | 100%
COc1ccc(-c2c[n+](-c3ccccc3)c3n2CCS3)cc1 [MLS000587970] | -5.712 M | 88.3% | 31% | 92% | 88% | 97%
COc1ccc(NC(=O)CN(C)C(=O)c2ccc(-c3ccccc3Cl)o2)cc1 [MLS001078689] | -5.750 M | 105% | 111% | 109% | 105% | 99%
C=C(C)CSc1nc2sc3c(c2c(=O)n1-c1ccc(C)cc1)CCN(C)C3 [MLS001173676] | -5.800 M | 86.9% | 59% | 87% | 87% | 97%
Cc1nn(-c2ccccc2)c(C)c1/C=N/Nc1nc2ccccc2[nH]1 [MLS000332160] | -6.012 M | 87.3% | 43% | 83% | 87% | 92%
CN(C(Cc1ccc(O[S+](=O)([O-])c2cccc3cnccc23)cc1)C(=O)N1CCN(c2ccccc2)CC1)[S+](=O)([O-])c1cccc2cnccc12 (centres unmarked) [NCGC00163381] | -6.300 M | 79.2% | 77% | – | 79% | 87%
O=C(CCl)Nc1ccc(Oc2cnc3ccccc3n2)cc1 [MLS000327546] | -5.812 M | 90.9% | 121% | 109% | 91% | 88%
N#Cc1c(N2CCN(c3ccc(F)cc3)CC2)nc(N)c2c(N)nc3c(c12)CC(=O)N3C1CC1 [MLS001003889] | -6.262 M | 89.7% | 50% | 101% | 90% | 102%
Nc1nonc1-n1nnc(C(=O)N/N=C/c2ccc(F)cc2)c1-c1ccc2c(c1)OCO2 [MLS001142639] | -6.637 M | 95.3% | 143% | 115% | 95% | 92%
CC(C)N(Cc1ccccc1)C(=O)CN1C(=O)COc2ccc([S+](=O)([O-])N3CCCCCC3)cc21 [NCGC00123222] | -6.100 M | 93.6% | 127% | 105% | 94% | 99%
Cc1cc(N2CCN(C3CCCC3)CC2)n2c(nc3ccccc32)c1C#N [MLS000039270] | -6.262 M | 89.8% | 94% | 106% | 90% | 89%
CCSc1nc2sc3c(c2c(=O)n1-c1ccccc1)CCN(C(C)C)C3 [MLS001173590] | -6.000 M | 92.6% | 63% | 91% | 93% | 100%
C/C(=N\Nc1ncnc2sc(C)c(C)c12)c1ccccn1 [MLS001176565] | -5.912 M | 40.2% | 5.49% | 9% | 40% | 52%
O=C1C(Nc2ccccc2)=C/C(=N\S(=O)(=O)c2cccs2)c2ccccc21 [MLS000374486] | -6.462 M | 86% | 34% | 65% | 86% | 101%
Cc1cc(C)n(-c2nnc(N3CCN(c4ccccc4)CC3)nn2)n1 [MLS000695202] | -6.012 M | 93.9% | 84% | 102% | 94% | 97%
Cc1cc(Nc2ccc(C)c(C)c2)n2nc(C)nc2n1 [MLS000116616] | -5.712 M | 90.3% | 39% | 76% | 90% | 91%
Cc1ccc(O)c(-c2cc(C(=O)Nc3ccc([S+](=O)([O-])N4CC(C)OC(C)C4)cc3)n[nH]2)c1 (centres unmarked) [NCGC00071593] | -6.150 M | 97% | 65% | 89% | 97% | 100%
CCCCc1c(C)c(C#N)c2nc3ccccc3n2c1Nc1c(C)n(C)n(-c2ccccc2)c1=O [MLS000555448] | -5.662 M | 90.2% | 121% | 128% | 90% | 93%
COc1ccc(-[n+]2c(-c3ccc(Br)cc3)cn3c2CCc2ccccc2-3)cc1.[Br-] [MLS000391920] | -5.612 M | 65.4% | 11% | 57% | 65% | 95%
Cc1ccc(NC2=C(N3CCCCC3)C(=O)c3ccccc3C2=O)cc1 [MLS000532222] | -6.600 M | 76.9% | 14% | 71% | 77% | 99%
COc1ccc(C2c3[nH]c4ccccc4c3C[C@H]3C(=O)N(C4CCN(Cc5ccccc5)CC4)CC(=O)N23)cc1OC (some centres unmarked) [MLS001215281] | -5.612 M | 90.3% | 73% | 94% | 90% | 101%
NC1=NC[C@@H](Cc2ccc(O)cc2)N1CCCCC1CCCCC1 [MLS000888822] | -5.487 M | 97.6% | 40% | 86% | 98% | 113%
